We go through two compounds from US20260060907A1, “GADUSOL-CONTAINING SUNSCREEN FORMULATIONS” (ARCAEA, LLC, priority 2022, published 2026).

The structures appear in SMILES notation.

The test system of one series is erythrocytes. Kind of series: Cell-based antioxidant protection in erythrocytes (CAP-e) assay. The settings on record: for lysis of the cells: highest dose (3.3 mg/ml), erythrocytes. As to the method:
The cell-based antioxidant protection in erythrocytes (CAP-e) assay (Honzel et. al., 2008, and Jensen GS. Cell-based antioxidant protection assay, also disclosed in U.S. Pat. No. 8,465,988, incorporated herein in its entirety by this reference) was used. This testing was selected to measure antioxidant power but, in addition, the method ensures that the antioxidant agent crosses the cell's lipid boundary layer so that only intracytoplasmic activity is measured. […] The tested concentrations for both gadusol and the Porphyra-334 ranged from 0.001 to 3.33 mg/mL.

The subject of another series is E. coli. Kind of series: Toxicity towards E. coli. The series is classed as cell-based. An excerpt: (§1) The amount of gadusol incorporated to provide the intended in vivo sunscreen SPF boosting activity can be from about 0.25, 0.50, 0.75, 1.0, 1.25, 1.50, 1.75, or 2.0% (w/w) in the sunscreen formulation that includes a physical/inorganic sunscreen active material, where any value can form an upper or lower endpoint, as appropriate. Still further, the amount of gadusol in the sunscreen formulation can be from about 0.25 to 2.0% (w/w), or from about 0.5 to 1.0% (w/w). In these, and possibly other amounts, gadusol suitably can provide a safe and effective sunscreen boosting effect when combined with sunscreen active ingredients. […] To summarize these safety tests, the cellular toxicity of gadusol was compared to that of a common sunscreen ingredient, oxybenzone. Vero E6 fibroblasts were used to evaluate toxicity. […] Toxicity towards E. coli was also not found.

The nature of another series: Ames Test. The format is cell-based.
Excerpt: as §1

Series [1] is described as follows: UV absorbance of the compounds. The settings on record: at 296 nm. The format is physicochemical. As to the method:
(§2) Yet further, the inventors have determined that the stability of aqueous gadusol can be improved when stored under acidic conditions. For example, 90% gadusol activity can be retained after 90 days at pH 2.5, where the concentration of gadusol is determined spectrophotometrically at 296 nm where it has an extinction coefficient of 21,800 M^−1 cm^−1. A standardized concentration curve can be used to determine an amount of gadusol in a volume sampled from a test solution at various time periods. Therefore, storage under acidic conditions may be useful for stabilizing gadusol generally, e.g., prior to introduction into a topical formulation. Combining gadusol with another antioxidant may be useful for extending the shelf life or stability of gadusol in a topical formulation.

The nature of series [2]: Folin-Ciocalteu antioxidant capacity. The format is biochemical. The settings on record: concentrations ranging from about 0.3 to 10 mg/ml.
The subject of a further series is Vero E6 fibroblasts. The format is cell-based.
Excerpt: as §1

Series [3] is described as follows: Stability of aqueous gadusol under acidic conditions (spectrophotometric at 296 nm). The series is classed as physicochemical. The following applies: after 90 days at pH 2.5. Here is the method:
as §2

The next series is described as follows: Comet assay. The series is classed as cell-based.
Excerpt: as §1

The nature of series [4]: In vitro SPF determination on VitroSkin substrate (Labsphere UV-1000, absorbance 290-400 nm). The series is classed as physicochemical. Here is the method:
SPF was also evaluated using an in vitro method that utilizes a synthetic/simulated skin as a test substrate. In this regard, VitroSkin® is an advanced testing substrate that effectively mimics the surface properties of human skin. It has been formulated to have topography, pH, critical surface tension, chemical reactivity and ionic strength that is similar to human skin. The procedure for in vitro testing was conducted according to a standard protocol. For testing, the test product was applied in a known amount to the substrate at an application density of 2 mg/cm^2. The in vitro SPF scores were determined using a Labsphere UV-1000 Ultraviolet Transmittance Analyzer. Spectral scans of absorbance of the artificial skin treated with a sample sunscreen formulation were performed in the UV region of 290-400 nm. The in vitro SPF was then calculated using the absorbance scan results. At least 5 in vitro SPF values were recorded for each example formulation and the averages calculated for reporting.
In another example, gadusol was tested by the in vitro method using the Vitroskin substrate in the methodology discussed above. The COS1 formulation having 0.0 and 0.5% (w/w) gadusol and the COS2 formulations were tested with 0, 0.25, 0.5% (w/w) gadusol.

Series [5] is described as follows: In vivo SPF determination (FDA 21 CFR 201.327 SPF test procedure). Further details: species or system human. As to the method: An in vivo SPF determination was conducted according to FDA, 21 CFR Sec. 201.327, subpart (i), SPF Test Procedure, Sunscreen Drug Products for Over-the-Counter Human Use, Final Monograph, Federal Register, Vol. 76, No. 117, Jun. 17, 2011, the disclosure of which is incorporated herein in its entirety by this reference. Each in vivo test for a sunscreen formulation was tested on three different subjects.
For subject enrollment, the test subjects reported to the testing laboratory and received a complete explanation of the study procedures. Those who participated signed a written, witnessed consent form, and a permission to release personal health information form and provided a brief medical history. The technician did a final examination of the subject's back, between the belt-line and shoulder blades and determined their suitability to participate in this study.
A Xenon Arc Solar Simulator lamp, which has a continuous light spectrum in the UVA and UVB range (290-400 nanometers) was utilized for the in vivo light source. The spectral output of the solar simulator was filtered so that it meets the spectral output requirements for testing Sunscreen Drug Products for over-the-counter human use; FDA Final Monograph, 21 CFR Part 201.327 (i)(1), UV Source, Federal Register, Vol. 76, No. 117, Jun. 17, 2011 and the International Sun Protection Factor (SPF) Test Method, May 2006, the disclosure of which is incorporated herein in its entirety by this reference.
For a baseline value, a series of 5 UV radiation doses expressed as Joules/square meter, increasing in 25% increments, was administered to two unprotected separate locations on each test subject's back, just below the shoulder blades and above the belt-line, to determine the initial unprotected MED (MEDu).
The MEDu was administered in the following 5 dose series, with X representing the amount of UV energy projected to produce the test subject's MEDu (Table C).
On Day 2, subjects returned to the testing laboratory within 16 to 24 hours following completion of the MEDu doses for evaluation of their responses, and to determine each subject's unprotected MED (MEDu). A subject's Minimal Erythemal Dose (MED) was the quantity of erythema effective energy, or dose corresponding to the first site that produced the first unambiguous erythema reaction with well-defined borders. The following grading scale used in this study for determining a MED (+) response. • − No perceptible erythemal response • ? […]
MEDp UV Dose was administered by the technician via a series of 5 UV radiation doses expressed as Joules/square meter, as specified in FDA, 21 CFR, Sec. […]

In the case of `COC1=C(NCC(=O)O)C[C@@](O)(CO)CC1=N[C@H](C(=O)O)[C@@H](C)O` [Porphyra-334, reference compound], the “effect on the protective action of gadusol (CAP-e)” value in the series with erythrocytes (gadusol and Porphyra-334 combined) is given as “did not interfere with the protective action of the gadusol”. In addition, the “lysis of the cells” value in the series with erythrocytes is “caused some lysis of the cells”.

Consider `COC1=C(O)CC(O)(CO)C(O)C1=O` (stereo not shown) [gadusol], for which the “Toxicity towards E. coli” value with E. coli is “not found”. In the series “Ames Test”, the “mutagenicity in the Ames Test” value is “not to be mutagenic”. The extinction coefficient in series [1] is 21,800 M^−1 cm^−1. Further, in series [2], the “antioxidant power (Folin-Ciocalteu)” value is on record as “substantially equivalent to a mycosporine compound from “nori” seaweed”. Moreover, the “cellular toxicity compared to oxybenzone” value with Vero E6 fibroblasts is “less toxic than oxybenzone”. In series [3], this compound returned a gadusol activity retained of 90%. Also, the “toxicity in the comet assay” value in “Comet assay” is given as “nor was it toxic”. The “greater in vitro SPF when added to a composition containing 10% ZnO” value in series [4] (0.5% (w/w) gadusol) was ~50%. Moreover, in [4] (0.5% gadusol, from about 290 to about 325 nm, FIG. 6), the “in vitro absorbance on addition to a 10% ZnO sunscreen formulation” value was “significantly more absorbance”. Besides, the “in vitro SPF activity of gadusol by itself” value in [4] (activity of the formulation matrix (1.1) subtracted) is reported as 2.5-2.8 SPF units. In the series on erythrocytes (at 0.133 mg/ml), the “antioxidant activity (CAP-e)” value is recorded as “Some in vivo antioxidant activity was seen”. Also, the “antioxidant activity (CAP-e) compared with Porphyra-334” value with erythrocytes (at about 1 mg/ml) is given as “significantly more active antioxidant”. Also, the “lysis of the cells” value with erythrocytes is recorded as “caused some lysis of the cells”. In addition, the “in vivo SPF, times the SPF conferred by 10% ZnO alone” value was “about 1.35 times” in series [5] (0.5% gadusol (w/w) with 10% ZnO), ~1.51 times in series [5] (0.75% gadusol (w/w) with 10% ZnO) and ~2.0 times in series [5] (1.0% gadusol (w/w) with 10% ZnO). Moreover, the SPF boost in [5] (gadusol 0.5 to 1% (w/w) in formulation containing 10% ZnO) is 135 to 200%.
